# According to ChEMBL document CHEMBL3885861, “Open TG-GATES”:
# Species on record: Rattus norvegicus
# Test: Open TG-GATES - Regimen: Single
# Type: toxicity, organism-based, Sprague-Dawley
# Design: regimen Single, gender Male, age 6 weeks
# Settings: in vivo, po, 300 mg/kg, route gavage, dose level Middle; for APTT / Bas / Eos / Fbg / Hb / Ht / Lym / MCH / MCHC / MCV / Mono / Neu / PT / Plat / RBC / Ret / WBC: tissue Blood; for KIDNEY_L / KIDNEY_R / KIDNEY_TOTAL: tissue Kidney; for LIVER: tissue Liver; for A/G / ALP / ALT / AST / BUN / CRE / Ca / Cl / DBIL / GLC / IP / K / LDH / Na / PL / RALB / TBIL / TC / TG / TP / gamma-GTP: tissue Plasma
smiles,measurement,setting,value
CCc1cc(C(N)=S)ccn1 [ETHIONAMIDE],TERMINAL_BW,3 h,230.2 g
same,APTT,3 h,17.6 s
same,Bas,3 h,0%
same,Eos,3 h,1%
same,Fbg,3 h,208.2 mg/dL
same,Hb,3 h,13.7 g/dL
same,Ht,3 h,40.6%
same,Lym,3 h,79.4%
same,MCH,3 h,21.7 pg
same,MCHC,3 h,33.7%
same,MCV,3 h,64.3 fL
same,Mono,3 h,4.8%
same,Neu,3 h,15.4%
same,PT,3 h,12.5 s
same,Plat,3 h,121.1 x10_4/uL
same,RBC,3 h,631.4 x10_4/ul
same,Ret,3 h,7.4%
same,WBC,3 h,69.7 x10_2/uL
same,KIDNEY_L,3 h,1 g
same,KIDNEY_R,3 h,1.1 g
same,KIDNEY_TOTAL,3 h,2.1 g
same,LIVER,3 h,11.4 g
same,A/G,3 h,1.8
same,ALP,3 h,771 IU/L
same,ALT,3 h,30.2 IU/L
same,AST,3 h,62.8 IU/L
same,BUN,3 h,15.6 mg/dL
same,CRE,3 h,0.6 mg/dL
same,Ca,3 h,10.8 mg/dL
same,Cl,3 h,102 meq/L
same,DBIL,3 h,0.016 mg/dL
same,GLC,3 h,200 mg/dL
same,IP,3 h,9.6 mg/dL
same,K,3 h,4.2 meq/L
same,LDH,3 h,102.4 IU/L
same,Na,3 h,141.2 meq/L
same,PL,3 h,126.2 mg/dL
same,RALB,3 h,3.5 g/dL
same,TBIL,3 h,0.4 mg/dL
same,TC,3 h,70.4 mg/dL
same,TG,3 h,63 mg/dL
same,TP,3 h,5.5 g/dL
same,gamma-GTP,3 h,1.4 IU/L
same,TERMINAL_BW,6 h,225.7 g
same,APTT,6 h,18.3 s
same,Bas,6 h,0%
same,Eos,6 h,0.8%
same,Fbg,6 h,203 mg/dL
same,Hb,6 h,14.5 g/dL
same,Ht,6 h,43.1%
same,Lym,6 h,80.6%
same,MCH,6 h,21.8 pg
same,MCHC,6 h,33.6%
same,MCV,6 h,64.7 fL
same,Mono,6 h,6.4%
same,Neu,6 h,12.4%
same,PT,6 h,13.5 s
same,Plat,6 h,124 x10_4/uL
same,RBC,6 h,667 x10_4/ul
same,Ret,6 h,7.8%
same,WBC,6 h,112.6 x10_2/uL
same,KIDNEY_L,6 h,1 g
same,KIDNEY_R,6 h,1 g
same,KIDNEY_TOTAL,6 h,2 g
same,LIVER,6 h,10.7 g
same,A/G,6 h,2
same,ALP,6 h,845.6 IU/L
same,ALT,6 h,32.8 IU/L
same,AST,6 h,73.2 IU/L
same,BUN,6 h,18.4 mg/dL
same,CRE,6 h,0.5 mg/dL
same,Ca,6 h,11.3 mg/dL
same,Cl,6 h,104.2 meq/L
same,DBIL,6 h,0.008 mg/dL
same,GLC,6 h,188.6 mg/dL
same,IP,6 h,9.8 mg/dL
same,K,6 h,4.3 meq/L
same,LDH,6 h,135.2 IU/L
same,Na,6 h,140 meq/L
same,PL,6 h,122.8 mg/dL
same,RALB,6 h,3.7 g/dL
same,TBIL,6 h,0.5 mg/dL
same,TC,6 h,66 mg/dL
same,TG,6 h,34.2 mg/dL
same,TP,6 h,5.6 g/dL
same,gamma-GTP,6 h,1 IU/L
same,TERMINAL_BW,9 h,224 g
same,APTT,9 h,18.1 s
same,Bas,9 h,0%
same,Eos,9 h,1.4%
same,Fbg,9 h,208.6 mg/dL
same,Hb,9 h,14.2 g/dL
same,Ht,9 h,42.3%
same,Lym,9 h,68.8%
same,MCH,9 h,21.2 pg
same,MCHC,9 h,33.7%
same,MCV,9 h,63.1 fL
same,Mono,9 h,8.4%
same,Neu,9 h,21.4%
same,PT,9 h,14.4 s
same,Plat,9 h,119.7 x10_4/uL
same,RBC,9 h,669.8 x10_4/ul
same,Ret,9 h,7.6%
same,WBC,9 h,69.4 x10_2/uL
same,KIDNEY_L,9 h,1 g
same,KIDNEY_R,9 h,1 g
same,KIDNEY_TOTAL,9 h,1.9 g
same,LIVER,9 h,10.1 g
same,A/G,9 h,2
same,ALP,9 h,660.4 IU/L
same,ALT,9 h,31 IU/L
same,AST,9 h,72 IU/L
same,BUN,9 h,15.6 mg/dL
same,CRE,9 h,0.5 mg/dL
same,Ca,9 h,10.7 mg/dL
same,Cl,9 h,106 meq/L
same,DBIL,9 h,0.01 mg/dL
same,GLC,9 h,195.2 mg/dL
same,IP,9 h,10.3 mg/dL
same,K,9 h,4.2 meq/L
same,LDH,9 h,86.2 IU/L
same,Na,9 h,143 meq/L
same,PL,9 h,106.6 mg/dL
same,RALB,9 h,3.6 g/dL
same,TBIL,9 h,0.4 mg/dL
same,TC,9 h,57.2 mg/dL
same,TG,9 h,19.8 mg/dL
same,TP,9 h,5.5 g/dL
same,gamma-GTP,9 h,0.8 IU/L
same,TERMINAL_BW,24 h,231.6 g
same,APTT,24 h,17.5 s
same,Bas,24 h,0%
same,Eos,24 h,1%
same,Fbg,24 h,194.8 mg/dL
same,Hb,24 h,14.2 g/dL
same,Ht,24 h,42%
same,Lym,24 h,66.2%
same,MCH,24 h,21.7 pg
same,MCHC,24 h,33.7%
same,MCV,24 h,64.3 fL
same,Mono,24 h,10%
same,Neu,24 h,23.2%
same,PT,24 h,13.6 s
same,Plat,24 h,112.3 x10_4/uL
same,RBC,24 h,653.6 x10_4/ul
same,Ret,24 h,7.7%
same,WBC,24 h,95 x10_2/uL
same,KIDNEY_L,24 h,1.1 g
same,KIDNEY_R,24 h,1.1 g
same,KIDNEY_TOTAL,24 h,2.2 g
same,LIVER,24 h,11.3 g
same,A/G,24 h,1.9
same,ALP,24 h,1035.2 IU/L
same,ALT,24 h,50.4 IU/L
same,AST,24 h,81.6 IU/L
same,BUN,24 h,15 mg/dL
same,CRE,24 h,0.6 mg/dL
same,Ca,24 h,10.6 mg/dL
same,Cl,24 h,104.6 meq/L
same,DBIL,24 h,0.028 mg/dL
same,GLC,24 h,190.8 mg/dL
same,IP,24 h,7.9 mg/dL
same,K,24 h,4.5 meq/L
same,LDH,24 h,106.2 IU/L
same,Na,24 h,141 meq/L
same,PL,24 h,105.2 mg/dL
same,RALB,24 h,3.4 g/dL
same,TBIL,24 h,0.4 mg/dL
same,TC,24 h,49.8 mg/dL
same,TG,24 h,77 mg/dL
same,TP,24 h,5.2 g/dL
same,gamma-GTP,24 h,1.4 IU/L
